Data set [1] in a line: Intrinsic cytotoxicity, EZ4U assay, HEK293A. The data set is classed as cell-based. The settings on record: human, HEK293A cells, compound alone. As to the method:
(§1) Next, we tested the compounds’ intrinsic toxicity against cervical cancer HeLa cells and non-cancerous HEK293A immortalized human embryonic kidney cells using the EZ4U assay format.
(§2) The cytotoxicity of the compounds to HeLa (human cervical cancer) and HEK293A (human embryonic kidney) cell lines was examined using the EZ4U Cell Proliferation and Cytotoxicity Assay (Biomedica, Vienna, Austria), according to the manufacturer’s protocols. The cells were grown in DMEM (Dulbecco’s Modified Eagle’s Medium) with 50 IU/mL penicillin, 50 μg/mL streptomycin (MP Biomedicals, Santa Ana, CA, USA), and 10% of fetal bovine serum (Biolot, St. Petersburg, Russia) in a 5% CO2 atmosphere. After formation of a 30–50%-monolayer, the tested compounds were added to the medium. The volume of the added reagents was 1/100 of the total volume of the culture medium, and the amount of DMSO (Sigma, St. Louis, MO, USA) was 1% of the final volume. The cell culture was monitored for 3 days. To assess the influence of the inhibitors on the cytotoxic effect of topotecan (Selleck Chemicals, Houston, TX, USA), 50% cytotoxic concentrations of topotecan and of each inhibitor were determined to attain a defined single-agent effect. Then, a minimum of two independent tests were performed with each inhibitor in combination with topotecan. When using a combination of drugs, TDP1 inhibitors were first added, then topotecan was added immediately (within 10–15 min).

In data set [2] the test system is HeLa cells. Description: Intrinsic cytotoxicity, EZ4U assay, HeLa. The conditions noted are these: HeLa and HEK293A cells. The format is cell-based, human. As to the method:
as §1, §2

The nature of data set [3]: Intrinsic cytotoxicity, EZ4U assay, HeLa. The conditions noted are these: human, HeLa cells, compound alone, 3 days. The format is cell-based, human. As to the method:
as §1, §2

The target in another data set is TDP1 (Homo sapiens, UniProt Q9NUW8). Description: TDP1 activity, real-time fluorescence biosensor assay. The data set is classed as biochemical.
Chain of TDP1 (Q9NUW8 whole entry): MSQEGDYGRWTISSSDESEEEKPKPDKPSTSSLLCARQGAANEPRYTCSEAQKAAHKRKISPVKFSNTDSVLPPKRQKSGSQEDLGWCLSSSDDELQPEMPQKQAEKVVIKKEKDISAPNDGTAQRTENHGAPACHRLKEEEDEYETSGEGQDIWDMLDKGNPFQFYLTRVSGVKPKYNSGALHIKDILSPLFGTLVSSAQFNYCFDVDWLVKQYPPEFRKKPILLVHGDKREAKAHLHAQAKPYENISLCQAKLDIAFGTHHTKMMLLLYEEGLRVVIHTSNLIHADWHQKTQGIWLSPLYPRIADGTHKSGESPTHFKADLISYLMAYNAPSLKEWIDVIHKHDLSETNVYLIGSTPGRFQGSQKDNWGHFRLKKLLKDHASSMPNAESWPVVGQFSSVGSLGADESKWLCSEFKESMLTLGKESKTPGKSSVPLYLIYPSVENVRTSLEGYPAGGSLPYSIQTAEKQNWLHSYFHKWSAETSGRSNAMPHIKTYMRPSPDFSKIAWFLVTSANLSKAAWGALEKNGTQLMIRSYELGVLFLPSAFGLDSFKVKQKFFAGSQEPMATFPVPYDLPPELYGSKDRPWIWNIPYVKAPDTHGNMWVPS
The test system of data set [4] is HeLa cells. Description: Combination index (CI) of topotecan and TDP1 inhibitors, CompuSyn. The data set is classed as cell-based, human. As to the method:
For HeLa cells, we calculated the combination index (CI), the parameter that is used to determine the degree of drug interaction. The combination index (CI) values for the different concentrations (Supplementary Figure S3) of topotecan and TDP1 inhibitors were less than one, and for some compounds less than 0.1 (Supplementary Table S1). This indicates a strong synergistic effect of topotecan and […]. The CI values were calculated with the CompuSyn version 1.0 software.
as §2

A further data set relates to HEK293A cells. Description: Influence of compounds on topotecan cytotoxicity, HEK293A. The data set is classed as cell-based, human. As to the method:
(§3) Then, we tested the ability of the adamantane–monoterpenoid derivatives to sensitize cells to the action of topotecan. For this, we chose a low-toxic concentration 20 μM and varied the concentrations of topotecan (Supplementary Figure S3).
(§4) In the reverse experiment, when the concentrations of the compounds were varied with 30 nM topotecan (in the experiments with HEK293A cells) or 3 μM topotecan (in the experiments with HeLa cells), respectively, a noticeable synergistic effect on HeLa cells was already observed at low concentrations of TDP1 inhibitors (1 and 5 μM) (Supplementary Figure S4). Given that the IC50 values for these compounds are >5 μM, this also indicates the presence of other targets in addition to TDP1.
as §2

The test system of data set [5] is HeLa cells. Description: Influence of compounds on topotecan cytotoxicity, HeLa. The format is cell-based. The settings on record: Homo sapiens, topotecan alone, read-out: Tpc CC50 HeLa. As to the method:
as §3, §4
The cytotoxicity of the compounds to HeLa (human cervical cancer) and HEK293A (human embryonic kidney) cell lines was examined using the EZ4U Cell Proliferation and Cytotoxicity Assay (Biomedica, Vienna, Austria), according to the manufacturer’s protocols. […] The cell culture was monitored for 3 days. To assess the influence of the inhibitors on the cytotoxic effect of topotecan (Selleck Chemicals, Houston, TX, USA), 50% cytotoxic concentrations of topotecan and of each inhibitor were determined to attain a defined single-agent effect. […]

Data set [6] in a line: Influence of compounds on topotecan cytotoxicity, HEK293A. The settings on record: human, HEK293A cells; topotecan alone; read-out: Tpc CC50 HEK293A. The data set is classed as cell-based, human. As to the method: as §3, §4, §2

Entries after “also recorded” stand apart in the source; their conditions may differ.

`CC1=CC[C@H](CCSc2nc(C34CC5CC(CC(C5)C3)C4)n[nH]2)C1(C)C` [14a, 3-(Adamantan-1-yl)-5-((2-((R)-2,2,3-trimethylcyclopent-3-en-1-yl)ethyl)thio)-1H-1,2,4-triazole] came in with a melting point of 113.5 °C. For the same molecule, the CC50 at 3 days in [1] was 47 ± 3 µM. Besides, in the data set with HeLa cells [2], the “intrinsic toxicity (in words)” value was “moderate toxicity”. In [3], the CC50 at 3 days was 53 ± 8 µM. In addition, the IC50 against TDP1 was found to be 5.5 ± 1.5 µM. In the data set with HeLa cells [4] (Tpc 0.3 µM + 20 µM compound), the Effect is reported as 0.17. For the same molecule, the Effect in the data set with HeLa cells [4] (Tpc 0.6 µM + 20 µM compound) is 0.47. Moreover, in the data set on HeLa cells [4] (Tpc 2.5 µM + 20 µM compound), the CI was 0.4461 and the Effect is 0.92. Moreover, in the data set on HeLa cells [4] (Tpc 5.0 µM + 20 µM compound), the CI was 0.7177 and the Effect is on record as 0.96. In the data set on HeLa cells [4] (Tpc […] + 20 µM compound), the CI is given as 0.2872 and the Effect amounted to 0.81. Besides, the “effect on the action of topotecan on HEK293A cells (in words)” value with HEK293A cells is given as “protected HEK293A cells from the action of topotecan”.

`CC1=CC[C@@H](CCSc2nc(C34CC5CC(CC(C5)C3)C4)n[nH]2)C1(C)C` [14b, 3-(Adamantan-1-yl)-5-((2-((S)-2,2,3-trimethylcyclopent-3-en-1-yl)ethyl)thio)-1H-1,2,4-triazole] registered a melting point of 111.8 to 112.4 °C. The CC50 at 3 days in [1] came out at 50 ± 3 µM. In addition, in the data set with HeLa cells [2], the “intrinsic toxicity (in words)” value is recorded as “moderate toxicity”. In addition, in data set [3], the CC50 at 3 days is 54 ± 7 µM. This molecule had an IC50 on TDP1 of 6.1 ± 0.1 µM. For the same molecule, in the data set with HeLa cells [4] (Tpc 0.3 µM + 20 µM compound), the CI is 0.00419 and the Effect is 0.94. Besides, in the data set with HeLa cells [4] (Tpc 0.5 µM + 20 µM compound), the CI was 0.00165 and the Effect is recorded as 0.97. In the data set on HeLa cells [4] (Tpc 1.0 µM + 20 µM compound), the CI worked out at 0.00117 and the Effect was 0.98. In the data set with HeLa cells [4] (Tpc 2.0 µM + 20 µM compound), the CI worked out at 0.00166 and the Effect was determined as 0.98. For the same molecule, in the data set on HeLa cells [4] (Tpc 4.0 µM + 20 µM compound), the CI is 0.00113 and the Effect is on record as 0.99.

`CC1=CC[C@H](CC(=O)Nc2nnc(C34CC5CC(CC(C5)C3)C4)s2)C1(C)C` [15a, N-(5-(Adamantan-1-yl)-1,3,4-thiadiazol-2-yl)-2-((R)-2,2,3-trimethylcyclopent-3-en-1-yl)acetamide] registered a melting point of 209.2 to 210.1 °C. Also, the CC50 at 3 days in [1] was more than 100 µM. Further, the CC50 at 3 days in [3] was more than 100 µM. Also, the IC50 on TDP1 stood at 6.1 ± 2.6 µM. Moreover, in the data set on HeLa cells [4] (Tpc 0.3 µM + 50 µM compound), the Effect is 0.27. Moreover, in the data set on HeLa cells [4] (Tpc 0.5 µM + 50 µM compound), the CI is given as 0.07887 and the Effect is reported as 0.53. In the data set with HeLa cells [4] (Tpc 1.0 µM + 50 µM compound), the CI turned out to be 0.06365 and the Effect was found to be 0.73. Further, in the data set on HeLa cells [4] (Tpc 2.0 µM + 50 µM compound), the CI is 0.06893 and the Effect was found to be 0.83. Also, in the data set with HeLa cells [4] (Tpc 4.0 µM + 50 µM compound), the CI is 0.07307 and the Effect is 0.9.

For the molecule `CC1=CC[C@@H](CC(=O)Nc2nnc(C34CC5CC(CC(C5)C3)C4)s2)C1(C)C` [15b, N-(5-(Adamantan-1-yl)-1,3,4-thiadiazol-2-yl)-2-((S)-2,2,3-trimethylcyclopent-3-en-1-yl)acetamide], the melting point was 210.9 °C. In data set [1], the CC50 at 3 days is more than 100 µM. The CC50 at 3 days in data set [3] was more than 100 µM. This molecule also yielded an IC50 at TDP1 of approximately 5 µM. Moreover, the Effect in the data set on HeLa cells [4] (Tpc 0.3 µM + 50 µM compound) came to 0.48. Also, in the data set with HeLa cells [4] (Tpc 0.5 µM + 50 µM compound), the CI was 0.05563 and the Effect is on record as 0.69. In addition, in the data set on HeLa cells [4] (Tpc 1.0 µM + 50 µM compound), the CI came to 0.04653 and the Effect was found to be 0.84. Also, in the data set on HeLa cells [4] (Tpc 2.0 µM + 50 µM compound), the CI is 0.05382 and the Effect was 0.9. Also, in the data set on HeLa cells [4] (Tpc 4.0 µM + 50 µM compound), the CI was 0.09564 and the Effect is 0.91. Also, the “effect on the action of topotecan on HEK293A cells (in words)” value with HEK293A cells is recorded as “protected HEK293A cells from the action of topotecan”.

Regarding `CC[C@@]1(O)C(=O)OCc2c1cc1n(c2=O)Cc2cc3c(CN(C)C)c(O)ccc3nc2-1` [Tpc, topotecan], in the data set on HeLa cells [5], the CC50 turned out to be 4 ± 1.3 µM. Also, the CC50 at 3 days in [6] worked out at 0.066 ± 0.028 µM.

Regarding `CC1(C)[C@@H]2CC[C@@]1(C(=O)Nc1nnc(C34CC5CC(CC(C5)C3)C4)s1)C(=O)C2` [compound 16, (1S,4R)-N-(5-(Adamantan-1-yl)-1,3,4-thiadiazol-2-yl)-7,7-dimethyl-2-oxobicyclo[2.2.1]heptane-1-carboxamide], the melting point is 269.6 °C. In addition, in [1], the CC50 at 3 days was found to be 23 ± 10 µM. In the data set on HeLa cells [2], the “intrinsic toxicity (in words)” value is given as “moderate toxicity”. Besides, the CC50 at 3 days in data set [3] was found to be 20 ± 8 µM. Further, on TDP1, the half-inhibitory concentration (IC50) is more than 30 µM and the “anti-TDP1 activity (in words)” value is listed as “not exhibiting anti-TDP1 activity; also recorded: ineffective”. The Effect in the data set on HeLa cells [4] (Tpc 0.3 µM + 20 µM compound) stood at 0.035. In addition, in the data set with HeLa cells [4] (Tpc 0.6 µM + 20 µM compound), the Effect amounted to 0.1. Moreover, in the data set with HeLa cells [4] (Tpc 2.5 µM + 20 µM compound), the CI is 0.5114 and the Effect was found to be 0.75. Besides, in the data set on HeLa cells [4] (Tpc 5.0 µM + 20 µM compound), the CI worked out at 0.8721 and the Effect is reported as 0.85. Further, the Effect with HeLa cells [4] (Tpc […] + 20 µM compound) worked out at 0.36.

For `CC1(C)[C@@H]2CC[C@@]1(CS(=O)(=O)Nc1nnc(C34CC5CC(CC(C5)C3)C4)s1)C(=O)C2` [compound 17, N-(5-(Adamantan-1-yl)-1,3,4-thiadiazol-2-yl)-1-((1S,4R)-7,7-dimethyl-2-oxobicyclo[2.2.1]heptan-1-yl)methanesulfonamide], the melting point fell in the range of 200.3 to 200.5 °C. The CC50 at 3 days in data set [1] is more than 100 µM. Besides, in data set [3], the CC50 at 3 days amounted to 100 ± 20 µM. Also, on TDP1, the IC50 was more than 30 µM and the “anti-TDP1 activity (in words)” value is “not exhibiting anti-TDP1 activity; also recorded: ineffective”. The Effect in the data set with HeLa cells [4] (Tpc 0.3 µM + 20 µM compound) is listed as 1.0E-4. The Effect in the data set with HeLa cells [4] (Tpc 0.6 µM + 20 µM compound) turned out to be 0.02. In the data set on HeLa cells [4] (Tpc 2.5 µM + 20 µM compound), the CI is 0.7924 and the Effect was determined as 0.6. Besides, in the data set with HeLa cells [4] (Tpc 5.0 µM + 20 µM compound), the CI was determined as 1.176 and the Effect is 0.81. Moreover, the Effect in the data set on HeLa cells [4] (Tpc […] + 20 µM compound) is on record as 0.25.

Usually CC50 stands for the concentration that lowers cell viability or growth by half. Usually IC50 stands for the concentration that inhibits the measured activity by half. Read a low IC50 as inhibition by little substance. Usually melting point stands for the temperature, or range, at which the solid turns liquid.

The values are drawn from PMC9182348, “Adamantane-Monoterpenoid Conjugates Linked via Heterocyclic Linkers Enhance the Cytotoxic Effect of Topotecan” (Molecules, 2022).
